Square brackets hold non-standard residues; d marks the D form. Peptide text beside a SMILES is read from it.
Key:
[1] = tested on: LPS-stimulated MG6 cells; test: Anti-inflammatory effect in LPS-stimulated MG6 cells (TNF-α / IL-6 ELISA); assay type: cell-based, mouse; settings: LPS-stimulated MG6 cells; for inhibition of IL-6 expression compared with MHP1 / inhibition of TNF-α expression compared with MHP1: medium harvested 24 h after stimulation; for effect on expression of TNF-α: vs LPS-stimulated cells without treatment
Procedure: MG6 cells were obtained from RIKEN BRC (Tsukuba, Japan)[25],[26]. The MG6 cells were maintained in DMEM (Nakarai, Kyoto, Japan) supplemented with 10% FBS (Thermo Fisher Scientific, Waltham, MA, USA), 10 μg/ml insulin (Sigma-Aldrich, St. Louis, MO, USA) and 100 μM 2-mercaptoethanol (Sigma-Aldrich). These cells (1 × 10^5 cells) were plated in 96-well plastic culture dishes. After overnight incubation, the medium was replaced with DMEM supplemented with 4% FBS. LPS (Escherichia coli 0111: B4; Sigma-Aldrich, St. Louis, MO, USA) and MHP1 or modified MHP1 was added to the medium, which was then harvested at 24 h after stimulation. In the experiment checking the stability at 26 or 37 °C, MHP1-Ac or MHP1-AcN was incubated at 26 or 37 °C for 24 h before adding to the medium.
The concentrations of TNF-α and IL-6 were measured using commercially available ELISA kits: TNF-α, Quantikine Mouse TNF-α ELISA Kit (R&D systems); IL-6, Quantikine Mouse IL-6 ELISA Kit (R&D systems).

[2] = Mouse (CD-1(ICR)) serum; settings: 37 °C, up to 60 min
[3] = tested on: LPS-stimulated MG6 cells; test: LDH assay in LPS-stimulated MG6 cells; assay type: cell-based, mouse
[4] = Dissolution in water and sedimentation in 0.45% saline at 37 °C for 24 h; assay type: physicochemical
Procedure: Synthetic MHP1 (NH2-[…]-COOH), MHP1-DN1 (NH2-LMVYVV-DLys-[…]-COOH), MHP1-DN2 (NH2-LMV-DTyr-[…]-COOH), MHP1-DN3 (NH2-L-DMet-[…]-COOH), MHP1-DC (NH2-LMVYVVKTSIKIPSSHNL-DMet-KGGSTKNWSGN-COOH), MHP1-Ac (Ac-[…]-COOH), MHP1-AcN (Ac-[…]-HN2), or MHP1-N (NH2-[…]-NH2) was purchased from ILS, Inc (Ibaraki, Tsukuba, Japan), dissolved in 1 or 2 mg/ml ddH2O and stored at 4 °C until use (Table 1).

[5] = Pharmacokinetics after intravenous injection 4 h after tMCAo (LC/MS/MS); assay type: in vivo; settings: mouse, i.v. 2 mg/ml, 10 ml/kg in 0.45% saline
Procedure: MHP1-Ac or MHP1-AcN (2 mg/ml, 10 ml/kg in 0.45% saline) was administered intravenously 4 hrs after tMCAo and mouse plasma was collected at 5 min, 10 min, 20 min, 30 min, 45 min, 1 h, and 2 h after injection. Mouse plasma (C57BL6J, 10 µL) and water/phosphoric acid (24:1, v/v) (Solution B, 500 µL) were mixed together to prepare the plasma samples. The samples (510 µL) were then analyzed using LC/MS/MS to determine MHP1-Ac or MHP1-AcN in plasma. Mouse brain was weighed and mixed with a 4-fold volume of solution B and the mixture was homogenized to prepare the brain samples. The specific gravity of solution B was assumed to be 1. The brain samples (10 µL) were analyzed using LC/MS/MS to determine MHP1-Ac or MHP1-AcN in brain. MHP1-Ac and MHP1-AcN, and MHP1-N (internal standard), in the plasma samples and brain samples, were extracted using Oasis HLB μElution Plate (Waters). Chromatographic analysis was performed on an InertSustain C18 (2.1 mm I.D. ×50 mm, 3 µm, GL Sciences) column using the mobile phase A, water/formic acid (1000:1, v/v), and the mobile phase B, acetonitrile/formic acid (1000:1, v/v).

| Compound | inhibition of IL-6 expression compared with MHP1 ([1]; ELISA) | inhibition of TNF-α expression compared with MHP1 ([1]; ELISA) | anti-inflammatory effects ([1]; 24 h, ELISA) | effect on expression of TNF-α ([1]; 24 h, ELISA) | also measured |
| --- | --- | --- | --- | --- | --- |
| CC[C@H](C)[C@H](NC(=O)[C@H](CO)NC(=O)[C@@H](NC(=O)[C@H](CCCCN)NC(=O)[C@@H](NC(=O)[C@@H](NC(=O)[C@H](Cc1ccc(O)cc1)NC(=O)[C@@H](NC(=O)[C@H](CCSC)NC(=O)[C@@H](N)CC(C)C)C(C)C)C(C)C)C(C)C)[C@@H](C)O)C(=O)N[C@@H](CCCCN)C(=O)N[C@H](C(=O)N1CCC[C@H]1C(=O)N[C@@H](CO)C(=O)N[C@@H](CO)C(=O)N[C@@H](Cc1c[nH]cn1)C(=O)N[C@@H](CC(N)=O)C(=O)N[C@@H](CC(C)C)C(=O)N[C@H](CCSC)C(=O)N[C@@H](CCCCN)C(=O)NCC(=O)NCC(=O)N[C@@H](CO)C(=O)N[C@H](C(=O)N[C@@H](CCCCN)C(=O)N[C@@H](CC(N)=O)C(=O)N[C@@H](Cc1c[nH]c2ccccc12)C(=O)N[C@@H](CO)C(=O)NCC(=O)N[C@@H](CC(N)=O)C(=O)O)[C@@H](C)O)[C@@H](C)CC [MHP1-DC] (H-LMVYVVKTSIKIPSSHNL[dM]KGGSTKNWSGN-OH) | not replicated | more effective than MHP1 |  |  |  |
| CC[C@H](C)[C@H](NC(=O)[C@H](CO)NC(=O)[C@@H](NC(=O)[C@@H](CCCCN)NC(=O)[C@@H](NC(=O)[C@@H](NC(=O)[C@H](Cc1ccc(O)cc1)NC(=O)[C@@H](NC(=O)[C@H](CCSC)NC(=O)[C@@H](N)CC(C)C)C(C)C)C(C)C)C(C)C)[C@@H](C)O)C(=O)N[C@@H](CCCCN)C(=O)N[C@H](C(=O)N1CCC[C@H]1C(=O)N[C@@H](CO)C(=O)N[C@@H](CO)C(=O)N[C@@H](Cc1c[nH]cn1)C(=O)N[C@@H](CC(N)=O)C(=O)N[C@@H](CC(C)C)C(=O)N[C@@H](CCSC)C(=O)N[C@@H](CCCCN)C(=O)NCC(=O)NCC(=O)N[C@@H](CO)C(=O)N[C@H](C(=O)N[C@@H](CCCCN)C(=O)N[C@@H](CC(N)=O)C(=O)N[C@@H](Cc1c[nH]c2ccccc12)C(=O)N[C@@H](CO)C(=O)NCC(=O)N[C@@H](CC(N)=O)C(=O)O)[C@@H](C)O)[C@@H](C)CC [MHP1-DN1] (H-LMVYVV[dK]TSIKIPSSHNLMKGGSTKNWSGN-OH) |  |  | lacked anti-inflammatory effects | augmented the expression of TNF-α |  |
| CC[C@H](C)[C@H](NC(=O)[C@H](CO)NC(=O)[C@@H](NC(=O)[C@H](CCCCN)NC(=O)[C@@H](NC(=O)[C@@H](NC(=O)[C@H](Cc1ccc(O)cc1)NC(=O)[C@@H](NC(=O)[C@H](CCSC)NC(=O)[C@@H](N)CC(C)C)C(C)C)C(C)C)C(C)C)[C@@H](C)O)C(=O)N[C@@H](CCCCN)C(=O)N[C@H](C(=O)N1CCC[C@H]1C(=O)N[C@@H](CO)C(=O)N[C@@H](CO)C(=O)N[C@@H](Cc1c[nH]cn1)C(=O)N[C@@H](CC(N)=O)C(=O)N[C@@H](CC(C)C)C(=O)N[C@@H](CCSC)C(=O)N[C@@H](CCCCN)C(=O)NCC(=O)NCC(=O)N[C@@H](CO)C(=O)N[C@H](C(=O)N[C@@H](CCCCN)C(=O)N[C@@H](CC(N)=O)C(=O)N[C@@H](Cc1c[nH]c2ccccc12)C(=O)N[C@@H](CO)C(=O)NCC(=O)N[C@@H](CC(N)=O)C(N)=O)[C@@H](C)O)[C@@H](C)CC [MHP1-N] (H-LMVYVVKTSIKIPSSHNLMKGGSTKNWSGN-NH2) | not replicated | more effective than MHP1 |  |  |  |
| CC[C@H](C)[C@H](NC(=O)[C@H](CO)NC(=O)[C@@H](NC(=O)[C@H](CCCCN)NC(=O)[C@@H](NC(=O)[C@@H](NC(=O)[C@H](Cc1ccc(O)cc1)NC(=O)[C@@H](NC(=O)[C@@H](CCSC)NC(=O)[C@@H](N)CC(C)C)C(C)C)C(C)C)C(C)C)[C@@H](C)O)C(=O)N[C@@H](CCCCN)C(=O)N[C@H](C(=O)N1CCC[C@H]1C(=O)N[C@@H](CO)C(=O)N[C@@H](CO)C(=O)N[C@@H](Cc1c[nH]cn1)C(=O)N[C@@H](CC(N)=O)C(=O)N[C@@H](CC(C)C)C(=O)N[C@@H](CCSC)C(=O)N[C@@H](CCCCN)C(=O)NCC(=O)NCC(=O)N[C@@H](CO)C(=O)N[C@H](C(=O)N[C@@H](CCCCN)C(=O)N[C@@H](CC(N)=O)C(=O)N[C@@H](Cc1c[nH]c2ccccc12)C(=O)N[C@@H](CO)C(=O)NCC(=O)N[C@@H](CC(N)=O)C(=O)O)[C@@H](C)O)[C@@H](C)CC [MHP1-DN3] (H-L[dM]VYVVKTSIKIPSSHNLMKGGSTKNWSGN-OH) |  |  | lacked anti-inflammatory effects | no influence |  |
| LMVYVVKTSIKIPSSHNLMKGGSTKNWSGN |  |  |  |  | cleaved bond [2]: L-M2 and M2-V and V-Y4 and Y4-V, major and K7-T, major and Met19-K; fragment found [2]: LMVYVVKTSIKIPSSHNLMKGGSTKNWSGN-Oxygen |
| CC[C@H](C)[C@H](NC(=O)[C@H](CO)NC(=O)[C@@H](NC(=O)[C@H](CCCCN)NC(=O)[C@@H](NC(=O)[C@@H](NC(=O)[C@H](Cc1ccc(O)cc1)NC(=O)[C@@H](NC(=O)[C@H](CCSC)NC(=O)[C@H](CC(C)C)NC(C)=O)C(C)C)C(C)C)C(C)C)[C@@H](C)O)C(=O)N[C@@H](CCCCN)C(=O)N[C@H](C(=O)N1CCC[C@H]1C(=O)N[C@@H](CO)C(=O)N[C@@H](CO)C(=O)N[C@@H](Cc1c[nH]cn1)C(=O)N[C@@H](CC(N)=O)C(=O)N[C@@H](CC(C)C)C(=O)N[C@@H](CCSC)C(=O)N[C@@H](CCCCN)C(=O)NCC(=O)NCC(=O)N[C@@H](CO)C(=O)N[C@H](C(=O)N[C@@H](CCCCN)C(=O)N[C@@H](CC(N)=O)C(=O)N[C@@H](Cc1c[nH]c2ccccc12)C(=O)N[C@@H](CO)C(=O)NCC(=O)N[C@@H](CC(N)=O)C(=O)O)[C@@H](C)O)[C@@H](C)CC [MHP1-Ac] (Ac-LMVYVVKTSIKIPSSHNLMKGGSTKNWSGN-OH) | more effective than MHP1 | more effective than MHP1 |  |  | cytotoxicity (LDH assay) [3]: did not increase cytotoxicity; sedimentation after incubation in 0.45% saline ([4]; 0.45% saline, 37 °C, 24 h, visual, concentration not given): experienced sedimentation; dissolution in water ([4]; water): easily dissolved in water; anti-inflammatory effects at 1 µg/ml ([1]; 1 µg/ml peptide): not seen; dose dependency of anti-inflammatory effects ([1]; 24 h, ELISA): Dose-dependent anti-inflammatory effects were observed; time post-injection until which peptide was detected in the brain ([5]; brain homogenate, last sampling 2 h): 2 h; time within which peptide was degraded in plasma ([5]; plasma): ≤ 20 min |
| CC[C@H](C)[C@H](NC(=O)[C@H](CO)NC(=O)[C@@H](NC(=O)[C@H](CCCCN)NC(=O)[C@@H](NC(=O)[C@@H](NC(=O)[C@@H](Cc1ccc(O)cc1)NC(=O)[C@@H](NC(=O)[C@H](CCSC)NC(=O)[C@@H](N)CC(C)C)C(C)C)C(C)C)C(C)C)[C@@H](C)O)C(=O)N[C@@H](CCCCN)C(=O)N[C@H](C(=O)N1CCC[C@H]1C(=O)N[C@@H](CO)C(=O)N[C@@H](CO)C(=O)N[C@@H](Cc1c[nH]cn1)C(=O)N[C@@H](CC(N)=O)C(=O)N[C@@H](CC(C)C)C(=O)N[C@@H](CCSC)C(=O)N[C@@H](CCCCN)C(=O)NCC(=O)NCC(=O)N[C@@H](CO)C(=O)N[C@H](C(=O)N[C@@H](CCCCN)C(=O)N[C@@H](CC(N)=O)C(=O)N[C@@H](Cc1c[nH]c2ccccc12)C(=O)N[C@@H](CO)C(=O)NCC(=O)N[C@@H](CC(N)=O)C(=O)O)[C@@H](C)O)[C@@H](C)CC [MHP1-DN2] (H-LMV[dY]VVKTSIKIPSSHNLMKGGSTKNWSGN-OH) |  |  | lacked anti-inflammatory effects | augmented the expression of TNF-α |  |

Reference: PMC6290023 (Scientific Reports, 2018)
